Laboratory results as given in US8735417B2, “Aminopyrimidines as Syk inhibitors” (Merck Sharp & Dohme Corp., priority 2009, dated 2014).

target: T1, recombinant human GST-SYK (Homo sapiens, UniProt P43405); assay: Homogeneous Time-Resolved Fluorescence (HTRF) assay for the recombinant human SYK enzyme; format: biochemical; details: recombinant human GST-SYK 5 pM, ATP 25 μM, 10-dose titration; read-out: rhSYK Activity (IC50)
T1 construct: purchased Carna Biosciences 08-176
Description: Homogeneous Time-Resolved Fluorescence (HTRF) Assay for the Recombinant Human SYK Enzyme:
A recombinant GST-hSYK fusion protein was used to measure potency of compounds to inhibit human SYK activity. The recombinant human GST-SYK (Carna Biosciences #08-176) (5 pM final concentration) was incubated with various concentrations of the inhibitor diluted in DMSO (0.1% final concentration) for 10 minutes at room temperature in 15 mM Tris-HCl (pH 7.5), 0.01% tween 20, 2 mM DTT in 384 well plate format. To initiate the reaction the biotinylated substrate peptide (250 nM final concentration) that contains the phosphorylation site for SYK was added with magnesium (5 mM final concentration) and ATP (25 μM final concentration). Final volume of the reaction was 10 μL. Phosphorylation of the peptide was allowed to proceed for 45′ at room temperature. To quench the reaction and detect the phosphorylated product, 2 nM of a Europium-atiti-phosphotyrosine antibody (Perkin Elmer #AD0161) and 70 nM SA-APC (Perkin-Elmer #CR130-100) were added together in 15 mM Tris pH 7.5, 40 mM EDTA, 0.01% tween 20. Final volume of the quenching solution was 10 μL. The resulting HTRF signal was measured after 30 minutes on a EnVision (Perkin-Elmer) reader using a time-resolved fluorescence protocol.

| SMILES | IC50 |
| --- | --- |
| Cc1cc(Nc2nccc(C(F)(F)F)n2)cc(-c2cnc(NCc3ccncc3)s2)c1 [Example 86] | ≤ 100 nM |
| Cc1cc(Nc2nccc(C(F)(F)F)n2)cc(-c2cnc(NCc3cncn3C)s2)c1 [Example 87] | ≤ 100 nM |
| Cc1cc(Nc2nccc(C(F)(F)F)n2)cc(-c2cnc(NCc3cc(C)n(C)n3)s2)c1 [Example 88] | ≤ 100 nM |
| Cc1cc(Nc2nccc(C(F)(F)F)n2)cc(-c2cnc(NCc3cn4ccccc4n3)s2)c1 [Example 89] | 100 to 1000 nM |
| Cc1cc(Nc2nccc(C(F)(F)F)n2)cc(-c2cnc(N(C)CCc3c[nH]c4ccccc34)s2)c1 [Example 90] | 100 to 1000 nM |
| Cc1cc(Nc2nccc(C(F)(F)F)n2)cc(-c2cnc(NCCc3c[nH]cn3)s2)c1 [Example 93] | ≤ 100 nM |
| Cc1cc(Nc2nccc(C(F)(F)F)n2)cc(-c2cnc(NCc3cn(C)cn3)s2)c1 [Example 94] | ≤ 100 nM |
| Cc1cc(Nc2nccc(C(F)(F)F)n2)cc(-c2cnc(NCC(O)C(F)F)s2)c1 (stereo not drawn) [Example 95] | ≤ 100 nM |
| Cc1cc(Nc2nccc(C(F)(F)F)n2)cc(-c2cnc(NCCc3cnccn3)s2)c1 [Example 96] | ≤ 100 nM |
| Cc1cc(Nc2nccc(C(F)(F)F)n2)cc(-c2cnc(NCc3cc(C)on3)s2)c1 [Example 97] | ≤ 100 nM |
| Cc1cc(Nc2nccc(C(F)(F)F)n2)cc(-c2cnc(NC[C@H]3CC[C@@H](N)CC3)s2)c1 [Example 98] | ≤ 100 nM |
| Cc1cc(Nc2nccc(C(F)(F)F)n2)cc(-c2cnc(NC(C)c3cccnc3)s2)c1 (stereo not drawn) [Example 99] | ≤ 100 nM |
| Cc1cc(Nc2nccc(C(F)(F)F)n2)cc(-c2cnc(NCc3cnn(C)c3)s2)c1 [Example 100] | ≤ 100 nM |
| Cc1cc(Nc2nccc(C(F)(F)F)n2)cc(-c2cnc(N(C)Cc3cnn(C)c3)s2)c1 [Example 101] | ≤ 100 nM |
| Cc1cc(Nc2nccc(C(F)(F)F)n2)cc(-c2cnc(N(C)Cc3nc4ccccc4o3)s2)c1 [Example 102] | 100 to 1000 nM |
| Cc1cc(Nc2nccc(C(F)(F)F)n2)cc(-c2cnc(NCc3cnsc3)s2)c1 [Example 104] | ≤ 100 nM |
| Cc1cc(Nc2nccc(C(F)(F)F)n2)cc(-c2cnc(NCc3cnsn3)s2)c1 [Example 105] | ≤ 100 nM |
| Cc1cc(Nc2nccc(C(F)(F)F)n2)cc(-c2cnc(NCCc3ncn[nH]3)s2)c1 [Example 106] | ≤ 100 nM |
| Cc1cc(Nc2nccc(C(F)(F)F)n2)cc(-c2cnc(NCCc3ccco3)s2)c1 [Example 107] | ≤ 100 nM |

| SMILES | IC50 |
| --- | --- |
| Cc1cc(Nc2nccc(C(F)(F)F)n2)cc(-c2cnc(NCCc3cccs3)s2)c1 [Example 108] | 100 to 1000 nM |
| Cc1cc(Nc2nccc(C(F)(F)F)n2)cc(-c2cnc(NCCc3nccs3)s2)c1 [Example 109] | ≤ 100 nM |
| Cc1cc(Nc2nccc(C(F)(F)F)n2)cc(-c2cnc(NCCc3cscn3)s2)c1 [Example 110] | ≤ 100 nM |
| Cc1cc(Nc2nccc(C(F)(F)F)n2)cc(-c2cnc(NCCc3c(C)n[nH]c3C)s2)c1 [Example 111] | ≤ 100 nM |
| Cc1cc(Nc2nccc(C(F)(F)F)n2)cc(-c2cnc(NCCc3c[nH]c4ccccc34)s2)c1 [Example 112] | ≤ 100 nM |
| Cc1cc(Nc2nccc(C(F)(F)F)n2)cc(-c2cnc(NCCC3(O)CCN(C)CC3)s2)c1 [Example 116] | ≤ 100 nM |
| Cc1cc(Nc2nccc(C(F)(F)F)n2)cc(-c2cnc(NCC(O)c3ccncc3)s2)c1 (stereo not drawn) [Example 117] | 100 to 1000 nM |
| Cc1cc(Nc2nccc(C(F)(F)F)n2)cc(-c2cnc(NCCc3ccncc3)s2)c1 [Example 118] | ≤ 100 nM |
| FC(F)(F)c1ccnc(Nc2cccc(-c3cnc(N4CCOCC4)s3)c2)n1 [Example 119] | ≤ 100 nM |
| FC(F)(F)c1ccnc(Nc2cccc(-c3cnc(N4CCOC(C(F)(F)F)C4)s3)c2)n1 (stereo not drawn) [Example 121] | 100 to 1000 nM |
| Cc1cc(Nc2nccc(C(F)(F)F)n2)cc(-c2cnc(N3CCOCC3)s2)c1 [Example 122] | ≤ 100 nM |
| O=C1CN(c2ncc(-c3cccc(Nc4nccc(C(F)(F)F)n4)c3)s2)CCN1 [Example 123] | 1000 to 10000 nM |
| CC1C(=O)NCCN1c1ncc(-c2cccc(Nc3nccc(C(F)(F)F)n3)c2)s1 (stereo not drawn) [Example 124] | ≤ 100 nM |
| O=C(O)c1cccc(N2CCN(c3ncc(-c4cccc(Nc5nccc(C(F)(F)F)n5)c4)s3)CC2)c1 [Example 125] | ≤ 100 nM |
| C=CCOC(=O)N1CCN(c2ncc(-c3cccc(Nc4nccc(C(F)(F)F)n4)c3)s2)C(CO)C1 (stereo not drawn) [Example 126] | 100 to 1000 nM |
| COCC(=O)N1CCN(c2ncc(-c3cccc(Nc4nccc(C(F)(F)F)n4)c3)s2)CC1 [Example 127] | ≤ 100 nM |
| Cc1cc(Nc2nccc(C(F)(F)F)n2)cc(-c2cnc(N3CCN(C(=O)c4ccc5cc[nH]c5c4)CC3)s2)c1 [Example 128] | ≤ 100 nM |
| OC1CCN(c2ncc(-c3cccc(Nc4nccc(C(F)(F)F)n4)c3)s2)CC1 [Example 129] | ≤ 100 nM |
| OCC1CCN(c2ncc(-c3cccc(Nc4nccc(C(F)(F)F)n4)c3)s2)CC1 [Example 130] | ≤ 100 nM |

| SMILES | IC50 |
| --- | --- |
| OC1CCCN(c2ncc(-c3cccc(Nc4nccc(C(F)(F)F)n4)c3)s2)C1 (stereo not drawn) [Example 131] | ≤ 100 nM |
| OCC1CCCCN1c1ncc(-c2cccc(Nc3nccc(C(F)(F)F)n3)c2)s1 (stereo not drawn) [Example 132] | ≤ 100 nM |
| OCC1CCCN(c2ncc(-c3cccc(Nc4nccc(C(F)(F)F)n4)c3)s2)C1 (stereo not drawn) [Example 134] | ≤ 100 nM |
| O=C(COC1CCN(c2ncc(-c3cccc(Nc4nccc(C(F)(F)F)n4)c3)s2)CC1)NC1CC1 [Example 136] | 100 to 1000 nM |
| FC(F)(F)c1ccnc(Nc2cccc(-c3cnc(N4CCC(n5cc(-c6ccccc6)nn5)CC4)s3)c2)n1 [Example 137] | 100 to 1000 nM |
| CC(C)(C)OC(=O)NCC1CCN(c2ncc(-c3cccc(Nc4nccc(C(F)(F)F)n4)c3)s2)CC1 [Example 138] | 1000 to 10000 nM |
| FC1CCN(c2ncc(-c3cccc(Nc4nccc(C(F)(F)F)n4)c3)s2)CC1 [Example 140] | 100 to 1000 nM |
| OCCC1CCN(c2ncc(-c3cccc(Nc4nccc(C(F)(F)F)n4)c3)s2)CC1 [Example 141] | ≤ 100 nM |
| OCCC1CCCN(c2ncc(-c3cccc(Nc4nccc(C(F)(F)F)n4)c3)s2)C1 (stereo not drawn) [Example 142] | ≤ 100 nM |
| NC1CCN(c2ncc(-c3cccc(Nc4nccc(C(F)(F)F)n4)c3)s2)CC1 [Example 143] | ≤ 100 nM |
| Cc1cc(Nc2nccc(C(F)(F)F)n2)cc(-c2cnc(N3CCC(OCC(=O)NC(C)(C)C)CC3)s2)c1 [Example 145] | 1000 to 10000 nM |
| Cc1cc(Nc2nccc(C(F)(F)F)n2)cc(-c2cnc(N3CCC(c4ccc(S(C)(=O)=O)cc4)CC3)s2)c1 [Example 146] | 1000 to 10000 nM |
| Cc1cc(Nc2nccc(C(F)(F)F)n2)cc(-c2cnc(N3CCC(CC(N)=O)CC3)s2)c1 [Example 148] | ≤ 100 nM |
| CC(=O)NCCC1CCN(c2ncc(-c3cc(C)cc(Nc4nccc(C(F)(F)F)n4)c3)s2)CC1 [Example 150] | ≤ 100 nM |
| Cc1cc(Nc2nccc(C(F)(F)F)n2)cc(-c2cnc(N3CCC4CN(C)CC4C3)s2)c1 (stereo not drawn) [Example 153] | ≤ 100 nM |
| CC1(O)CN(c2ncc(-c3cccc(Nc4nccc(C(F)(F)F)n4)c3)s2)C1 [Example 154] | ≤ 100 nM |
| OC1(C(F)(F)F)CN(c2ncc(-c3cccc(Nc4nccc(C(F)(F)F)n4)c3)s2)C1 [Example 155] | 100 to 1000 nM |
| O[C@@H]1CN(c2ncc(-c3cccc(Nc4nccc(C(F)(F)F)n4)c3)s2)C[C@@H]1O [Example 157] | ≤ 100 nM |
| OC1CCN(c2ncc(-c3cccc(Nc4nccc(C(F)(F)F)n4)c3)s2)C1 (stereo not drawn) [Example 158] | ≤ 100 nM |
